{"source": "patent US20140255432A1", "about": "“SILVESTROL, SILVESTROL ANALOGS AND USES THEREOF” (priority 2011, published 2014)", "key": {"lymphoma cell lines": {"system": "lymphoma cell lines", "test": "IC50 against lymphoma cell lines", "assay_type": "cell-based", "conditions": "Homo sapiens", "description": "These include EBV^+ lymphoblastoid cell lines (LCL) derived from SCID mice engrafted with peripheral blood mononuclear cells (hu-PBL-SCID) from EBV-positive donors. (FIG. 1). This hu-PBL-SCID model is a spontaneous, preclinical model of EBV-driven lymphomagenesis that can be utilized to study the anti-tumor and immune surveillance activity of EBV-specific memory T cells. In vitro, the anti-proliferative effect of silvestrol against EBV+ LCLs (FIG. 2) is preceded by a loss of EBV latent membrane protein 1 (LMP1). In FIG. 2A, relative proliferation was determined. MTS assays were performed on three donors treated with silvestrol (2, 5, or 10 nM) or DMSO (control). The assays were performed on days 1, 3, and 5. In FIG. 2B, relative growth was determined. Viability assays were performed on cells from three donors treated with silvestrol (2, 5, or 10 nM) or DMSO (control). The assays were performed on days 1, 3, and 5. Viability was assessed by annexin/propidium iodide flow cytometry."}, "EBNA2, EBNA3C, BZLF1": {"system": "EBNA2, EBNA3C, BZLF1", "test": "Immunoblot of other EBV proteins in LCL", "assay_type": "cell-based, Epstein-Barr virus", "conditions": "FIG. 3C", "description": "Cells were harvested and lysed as described (Alinari 2011). Following collection of whole cell lysates, equal amounts of protein were resolved by SDS-PAGE and transferred onto a PVDF membrane (Millipore, Billerica, Mass.). Membrane was probed overnight at 4° C. with β-actin, pSTAT1, pSTAT3, STAT1, STAT3, pAkt, Akt (Cell Signaling Technology, Danvers, Mass.), or LMP-1 (DakoCytomation, Carpinteria, Calif.). After incubation with HRP-conjugated secondary antibody (Cell Signaling Technology), protein was detected with SuperSignal West Pico Chemiluminescent Substrate (Pierce, Rockford, Ill.).\nWhole cell protein levels of LMP-1 was evaluated by immunoblot 72 hr after treating with a single dose (10 nM) of silvestrol in seven LCL lines (FIG. 3A). β-actin was included as a loading control. In FIG. 3B, LCL were incubated 24, 72, and 120 hr in the presence of 10 nM silvestrol or vehicle control. Whole cell lysates were immunoblotted for LMP-1. Results are representative of 3 LCL lines. […] Decreases in other latent gene products involved with EBV-driven B cell transformation were observed as well. In FIG. 3D, LCL were incubated as in FIG. 3B and immunoblotted for STAT1, STAT3, AKT and NF-κB p65."}, "[1]": {"system": "CD3-/CD19+ LCL and immune effector subsets", "test": "Non-irradiated LCL / autologous PBMC co-cultures, flow cytometry", "assay_type": "cell-based, human", "description": "Lymphoblastoid cell lines (LCL) were derived in vivo by engrafting severe combined immune-deficient (SCID) mice (Taconic, Hudson N.Y.) with human peripheral blood mononuclear cells (PBMC) from a healthy EBV-positive donor as described (Rowe 1991; Baiocchi 1994). Co-cultures (Cocx) were created by mixing 5×10^4 LCL (either non-irradiated or irradiated with 14000 rad) per well with equal numbers of autologous PBMC in 96-well plates. Cultures were grown in the presence of 10 U/mL IL-2 and were given a single dose of silvestrol and cultured for 10-14 days.\nCells from irradiated or non-irradiated co-cultures were co-stained with LIVE/DEAD cell stain (Invitrogen, Grand Island, N.Y.) and hu-CD3-APC and either hu-CD4-PE, hu-CD-8-PE, hu-CD19-PE (BD Biosciences, San Diego, Calif.), or hu-CD56-PE (Beckman Coulter, Brea, Calif.). Live events were gathered by gating on cells negative for the LIVE/DEAD stain on an FC500 cytometer (Beckman Coulter). Cell viability was also measured by flow cytometry at 24, 72, and 120 hr using annexin-V-FITC and propidium iodide (PI) according to the manufacturer's instructions (BD Biosciences).\nIt was next examined how viable, non-irradiated LCL interacted with immune effectors in the presence of silvestrol, a situation closer to conditions that occur in vivo. CoCx were incubated in the presence of 10 U/mL IL-2. Specifically, LCL from three separate donors were incubated at a ratio of 1:1 with their respective autologous PBMCs for 10 days after adding a single dose of 0, 2, 5, or 10 nM silvestrol. On day 10, flow cytometric analysis was conducted. Live events were gathered by gating on cells negative for the LIVE/DEAD stain. Data are expressed as percentage of total viable population for (A) CD3^−/CD19^+ LCLs; (B) CD3^+/C4^+ helper T cells; (C) CD3^+/CD8^+ CTLs; or (D) CD3^−/CD56^+ NK cells. Left untreated, the transformed LCL (CD3^−/CD19^+) cells proliferated and matched the expansion of effectors lymphocyte subsets, approximately maintaining the 1:1 ratio (FIGS. 34A and 34E). […] Similarly, CD4^+ T cell percentages were reduced with increasing silvestrol concentrations (FIG. 34B). In contrast, CD8+ T cells and CD56^+ NK cell populations expanded in the presence of silvestrol, both as percent of population and absolute numbers (FIGS. 34C-34D)."}, "interleukin-6": {"system": "interleukin-6", "test": "Real-time RT-PCR for NF-κB targets in LCL", "assay_type": "cell-based, human", "conditions": "10 nM in LCL (FIG. 45)", "description": "FIG. 41 presents data regarding NK cytotoxicity of K562 cells. […] FIG. 42 presents data regarding the cytotoxicity of LCLs pretreated with BZLF 1. […] BZLF1 antigen pulsed LCLs promoted enhanced killing in untreated and silvestrol-treated CTLs. FIG. 43 presents data relating to CD4 IFNgamma release with LCL pretreated with BZLF1. […] FIG. 44 presents data relating to CD4 IFNgamma release with LCL pretreated with BZLF 1. […] FIG. 45 presents data relating to interleukin-6 induction by silvestrol. […] FIG. 46 presents data relating to a change in LMP-1 expression following silvestrol treatment. […] Three cell lines were examined on days 1, 3, and 5 following treatment. FIG. 47 presents data relating to a change in EBNA1 expression following silvestrol treatment. Three cell lines were examined on days 1, 3, and 5 following treatment."}, "[2]": {"conditions": "single dose 2, 5, 10 nM, day 10, non-irradiated LCL"}}, "data": [{"smiles": "COC(=O)[C@H]1[C@@H](O)[C@@]2(O)c3c(OC)cc(O[C@@H]4O[C@@H]([C@H](O)CO)CO[C@H]4OC)cc3O[C@@]2(c2ccc(OC)cc2)[C@@H]1c1ccccc1", "note": "[silvestrol]", "values": [{"measurement": "IC50", "setting": "lymphoma cell lines", "value": "< 10", "unit": "nM"}, {"measurement": "EBNA2 and EBNA3C proteins", "setting": "EBNA2, EBNA3C, BZLF1", "value": "affected"}, {"measurement": "expression of BZLF1", "setting": "EBNA2, EBNA3C, BZLF1", "value": "did not affect"}, {"measurement": "CD19+ B cells in non-irradiated co-cultures", "setting": "[1]; 2, 5, 10 nM, 14 days of culture (FIG. 16)", "value": "dose dependent loss"}, {"measurement": "CD4+ T cell percentages", "setting": "[1]; [2]", "value": "reduced"}, {"measurement": "CD8+ T cell population (percent and absolute numbers)", "setting": "[1]; [2]", "value": "expanded"}, {"measurement": "CD56+ NK cell population (percent and absolute numbers)", "setting": "[1]; [2]", "value": "expanded"}, {"measurement": "viable EBV-LCL (CD3-/CD19+)", "setting": "[1]; [2]", "value": "dose-dependent ablation"}, {"measurement": "interleukin-6 expression", "setting": "interleukin-6", "value": "induced"}]}]}
